Read-outs that look alike come from different tables or passages of the source.
Columns and labels:
TXA2 receptor = target: T1, TXA2 receptor (Cavia porcellus, UniProt A0A286Y4I8); test: Binding study using 3H-U46619 (TXA2 receptor binding activities test); set-up: species or system guinea pig; details: 20 min; test compound 1 μM; 12 nM 3H-U46619; washed guinea pig platelets; 37° C., 20 minutes; read-out: % Inhibition (3H-U46619 binding)
T1 construct: To a washed platelet suspension (1×10^8 platelets) of guinea pig; endogenous in cells; host or cells: washed guinea pig platelets
T1 sequence (A0A286Y4I8 1-347): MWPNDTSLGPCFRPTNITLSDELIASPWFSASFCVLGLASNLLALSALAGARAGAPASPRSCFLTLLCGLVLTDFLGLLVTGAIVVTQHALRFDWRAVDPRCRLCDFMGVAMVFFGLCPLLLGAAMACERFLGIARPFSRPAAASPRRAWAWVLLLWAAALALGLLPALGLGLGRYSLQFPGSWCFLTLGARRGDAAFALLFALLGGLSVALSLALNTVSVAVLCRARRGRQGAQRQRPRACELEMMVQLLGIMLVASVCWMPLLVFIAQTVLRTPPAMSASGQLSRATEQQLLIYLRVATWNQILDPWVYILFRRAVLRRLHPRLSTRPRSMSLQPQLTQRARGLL
Description: Receptor binding was determined by a modified method of Kattelman et al. (Thrombosis Research, 41, 471 (1986)].
To a washed platelet suspension (1×10^8 platelets) of guinea pig were added 12 nM of tritium-labeled U46619 (^3 H-U46619; NEN Co., Ltd.) and a test compound (final concentration: 1 μM) solution. After keeping at 37° C. for 20 minutes, the mixture was rapidly filtered through a glass fiber filter paper (GF/C; Whatman). Immediately, the filter paper was washed 5 times with 3 ml of ice-cold 50 mM Tris-hydroxymethylaminomethane buffer (containing 100 mM sodium chloride). The glass fiber filter was transferred to a vial and a scintillator (Ex-H; manufactured by Wako Pure Chemical Industries Co., Ltd.) was added thereto. The radioactivity was determined with a liquid scintillation counter.
It is already known that ^3 H-U46619 is capable of binding with TXA2 receptor (see the publication supra). An inhibitory activity of the test compound against this binding means an ability of binding with the TXA2 receptor. It is also known that a good relationship exists between this binding activity and the anti-platelet activity (TXA2 antagonizing test).
An inhibitory activity (binding activity) of the test compound was calculated by the following equation. [formula]
Amount of the total binding is an amount of ^3 H-U46619-bound radioactivity in the absence of a test compound.
The amount of non-specific binding is used to mean an amount of ^3 H-U46619-bound radioactivity in the presence of 10 μM U-46619.
The amount bound in the presence of a test compound is an amount of ^3 H-U46619-bound radioactivity in the presence of a test compound in various concentrations.

[1] = system: guinea pig platelets (TXA2/prostaglandin H2 receptor); test: Test on anti-platelet activity (TXA2 antagonizing test): inhibition of U-46619-induced platelet aggregation; format: cell-based; details: Cavia porcellus, 0.05 h; minimum concentration inhibiting U-46619 (0.5-1 μM)-induced platelet aggregation by 30% or more; guinea pig PRP; read-out: TXA2 Antagonizing Activity (MEC), minimum effective concentration
Description: Using guinea pig platelets influence of the compounds in accordance with the present invention on platelet aggregation induced by U-46619 (9,11-dideoxy-9α,11a-methanoepoxyprostaglandin F2 α; manufactured by Cayman Chemica Co., Ltd.) which is a TXA2 /prostaglandin H2 receptor stimulant was examined.
Male guinea pig (Hartley strain; body weight, 300 to 600 g) was anesthesized by intraperitoneal administration of sodium pentobarbital (30 mg/kg) and blood was collected from the descending aorta of the abdomen with a 1/10 volume of sodium citrate. By centrifugation (KC-70: manufactured by Kubota Co., Ltd.) at 800 rpm for 10 minutes, platelet rich plasma (PRP) was collected. Platelet aggregation induced by U-46619 (0.5-1 μM) was determined by photometry [Born, G.V.R. et al., Nature (London), 194, 927-929 (1962)]. A test compound was pretreated 3 minutes prior to aggregation induction and ability of inhibiting aggregation was measured. The minimum concentration for inhibiting platelet aggregation by 30% or more was defined as the minimum effective concentration (MEC) of the test compound.

mice = test: Acute toxicity test; format: in vivo; details: mortality observed for seven days
Description: Using three dd strain male mice weighing 20±1 g, a test compound was orally (po; 300 mg/kg) or intraperitoneally (ip; 100 mg/kg) administered. MLD (the minimum lethal dose) was determined by observing the mortality for seven days after administration.

histamine H1 receptor = target: T2, histamine H1 receptor (Cavia porcellus, UniProt P31389); test: Binding study using 3H-pyrilamine (histamine H1 receptor binding); set-up: species or system guinea pig; details: read-out: (%) Inhibition (3H-pyrilamine binding)
T2 construct: from tissue; host or cells: guinea pig cerebellum membranes
T2 sequence (P31389 whole entry): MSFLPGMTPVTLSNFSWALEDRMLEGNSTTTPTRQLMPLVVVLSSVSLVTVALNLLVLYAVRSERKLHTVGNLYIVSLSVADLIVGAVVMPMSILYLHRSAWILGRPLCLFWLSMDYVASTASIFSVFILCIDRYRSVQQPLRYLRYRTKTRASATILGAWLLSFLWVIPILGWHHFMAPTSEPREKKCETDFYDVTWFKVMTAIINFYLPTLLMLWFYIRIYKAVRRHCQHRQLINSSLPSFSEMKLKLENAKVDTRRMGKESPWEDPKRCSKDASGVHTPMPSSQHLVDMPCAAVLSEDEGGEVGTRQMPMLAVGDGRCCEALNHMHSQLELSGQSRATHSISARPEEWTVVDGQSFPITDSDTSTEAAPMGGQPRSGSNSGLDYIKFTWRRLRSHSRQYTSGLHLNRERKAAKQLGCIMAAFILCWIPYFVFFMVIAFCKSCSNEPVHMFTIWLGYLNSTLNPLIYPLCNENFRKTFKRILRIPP
Description: Receptor binding was determined by the method of chang et al. [J. Neurochem., 32, 1953 (1979)].
The cerebellum of guinea pig was suspended in a 40-fold amount (V/W) of chilled 50 mM phosphate buffer (pH 7.5) with Polytron Homogenizer (Kinematica Co., Ltd.). The suspension was centrifuged (35,500×g, 10 minutes). The resulting precipitates were resuspended in an equal amount of fresh buffer followed by centrifugation. A 100-fold amount (V/W) of chilled buffer was added to the final precipitates.
To 1 ml of the membrane suspension adjusted as described above were added 50 μl of tritium-labeled pyrilamine (^3 H-pyrilamine; NEN Co., Ltd.) and 50 μl of a test compound. The mixture was allowed to stand at 25° C. for 30 minutes, 4 ml of chilled buffer was added thereto. The mixture was rapidly filtered through a glass fiber filter (GF/C; Whatman). The filter paper was further washed three times with 5 ml of buffer. Hereafter procedures were performed in a manner similar to the TXA2 receptor binding test to determine radioactivity.
An inhibitory activity of the test compound against H1 receptor was calculated by the following equation. [formula]
Amount of the total binding is an amount of ^3 H-pyrilamine-bound radioactivity in the absence of a test compound.
The amount of non-specific binding is an amount of ^3 H-pyrilamine-bound radioactivity in the presence of 3 μM Astemizole (manufactured by Janesen Pharmaceutics).
The amount bound in the presence of a test compound is an amount of ^3 H-pyrilamine-bound radioactivity in the presence of a test compound in various concentrations.

[2] = system: homologous passive cutaneous anaphylaxis (PCA); test: Antiallergic activity test: homologous passive cutaneous anaphylaxis (PCA) test for 48 hours using rats; format: in vivo, rat (Wistar strain, male); details: Rattus norvegicus, po, minimum dose with at least one of 3 rats showing PCA inhibition rate 50% or more, read-out: Antiallergic Activity (MED), minimum effective dose
Description: Antiallergic activity was examined in accordance with the passive cutaneous anaphylaxis (PCA) test using rats. As test animals, Wistar strain male rats weighing 180 to 220 g were used to collect antiserum and for the PCA test, Wistar strain male rats weighing 120 to 140 g were used.
Anti-EWA rat serum was prepared according to the method of Stotland and Share [Can. J. Physiol. Pharmacol., 52, 1114 (1974)]. That is, 1 mg of EWA was mixed with 20 mg of aluminum hydroxide gel and 0.5 ml of pertussis-diphtberia-tetanus mixed vaccine. The mixture was subcutaneously administered to the rat paw in 4 portions. Fourteen days after, blood was collected from the carotid artery and the serum was isolated and stored in a state frozen at -80° C. Titer of this antiserum to homologous PCA for 48 hours was 1:32.
Three rats were used per group. After the hair at the back was cut, 0.05 ml each of anti-EWA rat serum diluted to 8-fold with physiological saline was intracutaneously injected to each rat at the back in 2 places to passively sensitize the rat. A test compound or its solution (physiological saline solution or CMC solution) was orally administered 47 hours after and 0.5 ml/100 g of 1% Evans Blue physiological saline containing 2 mg of antigen EWA was then intravenously administered to the tail vein an hour after the administration. Thirty minutes later, the animal was bled to death. The skin was peeled off and a leaked dye amount at the blue dyed portion was measured according to the method of Katayama et al. [Microbiol. Immunol., 22, 89 (1978)]. That is, the blue dyed portion was cut off with scissors, put into a test tube charged with 1 ml of 1 N potassium hydroxide and incubated at 37° C. for 24 hours. After 9 ml of a mixture of 0.6 N phosphate:acetone (5:13) was added to the system, the mixture was shaken followed by centrifugation at 2500 rpm for 10 minutes. The absorbancy of the supernatant at 620 nm was measured and the leaked dye amount was quantitatively determined by comparison with a calibration curve previously prepared. A value of one rat was obtained from a mean value of the two portions and an inhibition rate-of each rat was calculated according to the following equation. [formula]
The case showing that the inhibition rate is 50% or more is judged to be positive in the PCA inhibition activity and the minimum dose in which at least one out of 3 rats was recognized to be positive was defined as the minimum effective dose (MED) of the test compound.

O=C(O)COc1ccc(CCNS(=O)(=O)c2ccccc2)cc1 [BM13177, reference compound]
inhibition at 1 µM (TXA2 receptor): 31%
minimal effective concentration [1]: 3 µg/mL
Acute Toxicity (MLD), minimum lethal dose (mice; ip): > 100 mg/kg
Acute Toxicity (MLD), minimum lethal dose (mice; po): > 300 mg/kg
inhibition at 1 µM (histamine H1 receptor; test compound 10^-6 M, guinea pig cerebellum membranes, 25° C., 30 minutes): 0%
minimal effective dose [2]: > 100 mg/kg

O=C(O)c1ccc2c(c1)C(SCCN1CCN(Cc3ccccc3)CC1)c1ccccc1CO2 (stereo not drawn) [Compound 11b, 11-[2-(4-Benzyl-1-piperazinyl)ethyl]thio-6,11-dihydrodibenz[b,e]oxepin-2-carboxylic acid]
inhibition at 1 µM (TXA2 receptor): 70%
minimal effective concentration [1]: 1 µg/mL
Acute Toxicity (MLD), minimum lethal dose (mice; ip): > 100 mg/kg
Acute Toxicity (MLD), minimum lethal dose (mice; po): > 300 mg/kg
inhibition at 1 µM (histamine H1 receptor): 95%
minimal effective dose [2]: 10 mg/kg

O=C(O)c1ccc2c(c1)C(SCCN1CCN(S(=O)(=O)c3cccs3)CC1)c1ccccc1CO2 (stereo not drawn) [Compound 25b, 11-[2-[4-(2-Thienylsulfonyl)-1-piperazinyl]ethyl]thio-6,11-dihydrodibenz[b,e]oxepin-2-carboxylic acid.0.5 isopropanol.dihydrate]
inhibition at 1 µM (TXA2 receptor): 78%
minimal effective concentration [1]: 3 µg/mL
Acute Toxicity (MLD), minimum lethal dose (mice; ip): > 100 mg/kg
Acute Toxicity (MLD), minimum lethal dose (mice; po): > 300 mg/kg
inhibition at 1 µM (histamine H1 receptor): 95%
minimal effective dose [2]: 10 mg/kg
